Results as given in publication PMC8122397, “Synthesis of New Triazolopyrazine Antimalarial Compounds” (Molecules, 2021).
Where two headings read alike, the source gives them in different places.

Legend:
[1] = tested on: Plasmodium falciparum 3D7 (chloroquine-sensitive strain); test: In vitro anti-plasmodial image-based asexual assay, 3D7 strain; type: cell-based; conditions: for IC50 / inhibition at 80 µM: 3D7 strain; for IC50: 72 h; for inhibition at 80 µM: top dose of 80 µM, read-out: Pf 3D7 inhibition at the top dose
Description: (§1) The semisynthesized/functionalized triazolopyrazine compounds and the scaffold triazolopyrazine precursors, compounds 1–18, were tested for their antimalarial activity against the 3D7 (chloroquine-sensitive strain) and Dd2 (chloroquine, pyrimethamine, and mefloquine resistant strain) P. falciparum. Where an accurate IC50 value could not be determined due to 100% growth inhibition and a plateau not being reached, but where ≥90% growth inhibition was attained at the top screening concentration, an estimated IC50 value was calculated.
(§2) Plsamodium falciparum 3D7 and Dd2 parasites were cultured in RPMI1640 (Life Technologies, Camarillo, CA, USA) supplemented with 2.5 mg/mL Albumax II, 5% AB human serum, 25 mM HEPES, and 0.37mM hypoxanthine. Ring stage parasites were treated with compounds following two rounds of sorbitol synchronization, as previously described. Artesunate and pyrimethamine were incorporated as controls. Following incubation of assay plates for 72 h at 37 °C, and 5% CO2 and 5% O2, parasites were stained with 2-(4-amidinophenyl)-1H-indole-6-carboxamidine (DAPI) and imaged using an Opera QEHS confocal imaging system (PerkinElmer, Waltham, MA, USA). Images were analyzed, as previously described, using Acapella spot detection software (PerkinElmer, Waltham, MA, USA).
(§3) Normalizing of raw data used the in-plate positive (5 μM puromycin 100% inhibition) and negative (0.4% DMSO–no inhibition) controls to obtain percent inhibition and then used to calculate IC50 values through a 4 parameter logistic curve fitting in GraphPad Prism v.6.

[2] = tested on: Plasmodium falciparum Dd2 (chloroquine, pyrimethamine, and mefloquine drug-resistant strain); test: In vitro anti-plasmodial image-based asexual assay, Dd2 strain; type: cell-based; conditions: for IC50 / inhibition at 80 µM: Plasmodium falciparum, Dd2 strain; for IC50: 72 h; for Dd2 potency compared to the 3D7 results, in words: Dd2 versus 3D7; for inhibition at 80 µM: top dose of 80 µM, read-out: Pf Dd2 inhibition at the top dose
Description: as §1, §2, §3

[3] = tested on: Plasmodium falciparum (Pf); design: method as in earlier work; conditions: OSM master compounds' list; read-out: Pf activity IC50, previously reported OSM data; cited from earlier work
[4] = tested on: Pf 3D7; conditions: cited from earlier work
[5] = Plasmodium falciparum, 3D7, 72 h, controls, read-out: Pf 3D7 IC50 ± SD (controls)
[6] = controls, read-out: Pf Dd2 IC50 ± SD (controls)
[7] = estimated IC50 as only ~90% inhibition reached at the top dose of 80 µM, read-out: Pf 3D7 IC50 ± SD (estimated, footnote d)
[8] = Plasmodium falciparum, 3D7, 72 h, estimated IC50 as only ~90% inhibition reached at the top dose of 80 µM, read-out: Pf 3D7 IC50 ± SD (estimated, footnote d)
[9] = Plasmodium falciparum, 3D7, 72 h, read-out: Pf 3D7 IC50 ± SD
[10] = in vitro, read-out: IC50 (Pf 3D7), Figure 1

In the case of `C[C@H]1[C@H](OC(=O)CCC(=O)O)O[C@@H]2O[C@@]3(C)CC[C@H]4[C@H](C)CC[C@@H]1[C@@]24OO3` [Artesunate, reference compound], the IC50 [1, 5] is reported as 0.00348 ± 0.00014 µM and the IC50 [2, 6] is reported as 0.002 ± 0.0001 µM.

Compound `FC(F)Oc1ccc(-c2nnc3cncc(Cl)n23)cc1` [Compound 1] has an IC50 [1, 7] of 16.8 ± 1.25 µM, an IC50 [1, 8] of 16.8 µM and an IC50 ([2]; read-out: Pf Dd2 IC50 ± SD) of 22.8 ± 13.7 µM.

For `CC(F)(F)c1ncc(Cl)n2c(-c3ccc(Cl)cc3)nnc12` [Compound 15, 5-Chloro-3-(4-chlorophenyl)-8-(1,1-difluoroethyl)-[1,2,4]triazolo[4,3-a]pyrazine], the “fold improvement in potency compared to the parent scaffold” value ([1]; 3D7, compared with scaffold 7) was 7.3 fold, the IC50 ([1]; read-out: Pf 3D7 IC50 ± SD) was 1.72 ± 0.02 µM and the IC50 [1, 9] was 1.7 µM. For the same compound, the IC50 ([2]; read-out: Pf Dd2 IC50 ± SD) was 2.58 ± 0.07 µM.

In the case of `FC1(F)CCC(c2nccn3c(-c4ccc(Cl)cc4)nnc23)CC1` [Compound 18, 3-(4-Chlorophenyl)-8-(4,4-difluorocyclohexyl)-[1,2,4]triazolo[4,3-a]pyrazine], the “antimalarial activity in words” value ([1]; 3D7) is reported as “limited activity”, the inhibition at 80 µM ([1]; Plasmodium falciparum) is reported as under 41% and the melting point is reported as 203 to 205 °C.

In the case of `FC(F)(F)c1ncc(Cl)n2c(-c3ccc(Cl)cc3)nnc12` [Compound 14, 5-Chloro-3-(4-chlorophenyl)-8-(trifluoromethyl)-[1,2,4]triazolo[4,3-α]pyrazine], the IC50 [1, 9] is reported as 4.84 ± 0.13 µM and the IC50 ([2]; read-out: Pf Dd2 IC50 ± SD) is reported as 6.18 ± 0.09 µM.

In the case of `FC1(F)CCC(c2ncc(Cl)n3c(-c4ccc(Cl)cc4)nnc23)CC1` [Compound 17, 5-Chloro-3-(4-chlorophenyl)-8-(4,4-difluorocyclohexyl)-[1,2,4]triazolo[4,3-a]pyrazine], the “antimalarial activity in words” value ([1]; 3D7) is reported as “limited activity”, the IC50 [1, 8] is reported as 20.2 ± 2.86 µM and the “Dd2 potency compared to the 3D7 results, in words” value [2] is reported as “large decreases in potency”. It also gave an inhibition at 80 µM [2] of under 41%.

For `FC(F)Oc1ccc(-c2nnc3cncc(OCC(F)(F)F)n23)cc1` [Compound 3, 3-[(4-Difluoromethoxy)phenyl]-5-(2,2,2,-trifluroethoxy)-[1,2,4]triazolo[4,3-α]pyrazine], the IC50 ([1]; read-out: Pf 3D7 IC50 ± SD) was 16.6 ± 1.02 µM, the IC50 [1, 9] was 16.7 µM and the IC50 ([2]; read-out: Pf Dd2 IC50 ± SD) was 21.2 ± 5.41 µM. For the same compound, the melting point was 169 to 170 °C and the IC50 [3] was 10 µM.

For `OCC(COc1cncc2nnc(-c3ccc(OC(F)F)cc3)n12)c1ccccc1` (stereo not shown) [OSM-LO-13], the IC50 [4, 10] is given as 0.279 µM.

In the case of `COc1ccc(C[C@H](N)C(=O)N[C@H]2[C@@H](O)[C@H](n3cnc4c(N(C)C)ncnc43)O[C@@H]2CO)cc1` [Puromycin, reference compound], the IC50 [1, 5] is reported as 0.0953 ± 0.00145 µM and the IC50 [2, 6] is reported as 0.101 ± 0.0028 µM.

With `N#Cc1ccc(-c2nnc3cncc(Cl)n23)cc1` [Compound 9] the IC50 [1, 7] was 18.9 ± 0.66 µM, the IC50 [1, 8] was 18.9 µM and the IC50 ([2]; read-out: Pf Dd2 IC50 ± SD) was 25.9 ± 0.74 µM.

For `CC(F)(F)c1nccn2c(-c3ccc(Cl)cc3)nnc12` [Compound 16, 3-(4-Chlorophenyl)-8-(1,1-difluoroethyl)-[1,2,4]triazolo[4,3-a]pyrazine], the IC50 [1, 9] was 6.4 ± 0.1 µM, the “Dd2 potency compared to the 3D7 results, in words” value [2] was “large decreases in potency” and the IC50 ([2]; read-out: Pf Dd2 IC50 ± SD) was 24.7 ± 0.15 µM.

`Clc1ccc(-c2nnc3cncc(Cl)n23)cc1` [Compound 7] showed an IC50 [1, 9] of 12.6 µM and an IC50 ([2]; read-out: Pf Dd2 IC50 ± SD) of 14.3 ± 0.62 µM.

For `Cc1ncc(Cl)n2c(-c3ccc(Cl)cc3)nnc12` [Compound 8, 5-Chloro-3-(4-chlorophenyl)-8-methyl-[1,2,4]triazolo[4,3-α]pyrazine], the IC50 [1, 8] was 19.2 ± 0.28 µM and the IC50 ([2]; read-out: Pf Dd2 IC50 ± SD) was 32.4 ± 1.44 µM.

For `CCc1nc(N)nc(N)c1-c1ccc(Cl)cc1` [Pyrimethamine, reference compound], the IC50 [1, 5] was 0.01208 ± 4e-05 µM and the inhibition at 80 µM [2] was under 41%.

In the case of `Cc1ncc(OCCc2ccccc2)n2c(-c3ccc(OC(F)F)cc3)nnc12` [Compound 13, 3-[4-(Difluoromethoxy)phenyl]-8-methyl-5-(2-phenylethoxy)-[1,2,4]triazolo[4,3-a]pyrazine], the “fold decrease in potency on methylation” value ([1]; 3D7, compared with compound 2) is reported as 37 fold, the IC50 [1, 7] is reported as 11 ± 0.56 µM and the IC50 [1, 8] is reported as 11.1 µM. For the same compound, the “Dd2 potency compared to the 3D7 results, in words” value [2] was “slight increase in potency” and the IC50 ([2]; read-out: Pf Dd2 IC50 ± SD) was 8.2 ± 0.6 µM.

For `FC(F)Oc1ccc(-c2nnc3cncc(OCCc4ccccc4)n23)cc1` [Compound 2, 3-[4-(Difluoromethoxy)phenyl]-5-(2-phenylethoxy)-[1,2,4]triazolo[4,3-α]pyrazine], the IC50 ([1]; read-out: Pf 3D7 IC50 ± SD) was 0.31 ± 0.01 µM, the IC50 [1, 9] was 0.3 µM and the IC50 ([2]; read-out: Pf Dd2 IC50 ± SD) was 0.54 ± 0.02 µM. The IC50 [4, 10] was 0.3 µM and the IC50 ([4]; read-out: IC50 against Pf 3D7, previously reported) was 0.301 µM.

In the case of `OC(COc1cncc2nnc(-c3ccc(OC(F)F)cc3)n12)c1ccc(F)c(F)c1` (stereo not shown) [OSM-S-390], the IC50 [4, 10] is listed as 0.07 µM.

In the case of `Cc1ncc(Cl)n2c(-c3ccc(C#N)cc3)nnc12` [Compound 10, 4-(5-Chloro-8-methyl-1,2,4-triazolo[4,3-α]pyrazin-3-yl)benzonitrile], the IC50 [1, 8] is reported as 27.3 ± 0.82 µM and the IC50 ([2]; read-out: Pf Dd2 IC50 ± SD) is reported as 38.2 ± 0.61 µM.

In the case of `Fc1ccc([C@@H](COc2cncc3nnc(-c4ccc(OC(F)F)cc4)n23)OC(F)F)cc1F` [OSM-S-377], the IC50 [4, 10] is given as 0.016 µM.

For `Oc1nccn2c(-c3ccc(OC(F)F)cc3)nnc12` [Compound 4, 3-[4-(Difluoromethoxy)phenyl]-[1,2,4]triazolo[4,3-α]pyrazin-8-ol], the inhibition at 80 µM ([1]; Plasmodium falciparum) was under 41%.

In the case of `Cc1ncc(OCC(F)(F)F)n2c(-c3ccc(OC(F)F)cc3)nnc12` [Compound 12, 3-[4-(Difluoromethoxy)phenyl]-8-methyl-5-(2,2,2-trifluoroethoxy)-[1,2,4]triazolo[4,3-a]pyrazine], the “growth inhibition at the top screening concentration” value ([1]; 3D7, predicted IC50 value not calculated) is reported as under 90%, the “Dd2 potency compared to the 3D7 results, in words” value [2] is reported as “large decreases in potency” and the inhibition at 80 µM [2] is reported as under 41%.

For `C[Si](C)(C)CCOc1cncc2nnc(-c3ccc(OC(F)F)cc3)n12` [Compound 5], the IC50 [1, 9] was 13.9 ± 0.87 µM, the “Dd2 potency compared to the 3D7 results, in words” value [2] was “large decreases in potency” and the melting point was 135 °C.

For `Cc1ncc(Cl)n2c(-c3ccc(OC(F)F)cc3)nnc12` [Compound 11, 5-Chloro-3-[(4-difluoromethoxy)phenyl]-8-methyl-[1,2,4]triazolo[4,3-α]pyrazine], the IC50 ([1]; read-out: Pf 3D7 IC50 ± SD) was 12.5 ± 0.58 µM, the IC50 [1, 9] was 12.5 µM and the “Dd2 potency compared to the 3D7 results, in words” value [2] was “large decreases in potency”. For the same compound, the IC50 ([2]; read-out: Pf Dd2 IC50 ± SD) was 31.2 ± 0.82 µM.

With `C[Si](C)(C)CCOc1nccn2c(-c3ccc(OC(F)F)cc3)nnc12` [Compound 6, 3-[4-(Difluoromethoxy)phenyl]-8-[2-(trimethylsilyl)ethoxy)-[1,2,4]triazolo[4,3-α]pyrazine] the inhibition at 80 µM ([1]; Plasmodium falciparum) was under 41%.
